Patent publication US6544985B2, “Dihydro-benzo [b][1,4]diazepin-2-one derivatives” (Hoffman-La Roche Inc., priority 2001, dated 2003)

SMILES	melting point
CC(C)N(C)c1cc2c(cc1C(F)(F)F)NC(=O)CC(c1cccc(-n3nncc3CO)c1)=N2 [Example 119, 4-[3-(5-Hydroxymethyl-[1,2,3]triazol-1-yl)-phenyl]-7-(isopropyl-methyl-amino)-8-trifluoromethyl-1,3-dihydro-benzo[b][1,4]diazepin-2-one]	234 °C
Cc1cc(-c2cccc(C3=Nc4cc(N(C)C(C)C)c(C(F)(F)F)cc4NC(=O)C3)c2)on1 [Example 120, 7-(Isopropyl-methyl-amino)-4-[3-(3-methyl-isoxazol-5-yl)-phenyl]-8-trifluoromethyl-1,3-dihydro-benzo[b][1,4]diazepin-2-one]	199 °C
CCCN(C)c1cc2c(cc1Cl)NC(=O)CC(c1cccc(-n3nncc3CN(CC)CC)c1)=N2 [Example 123, 8-Chloro-4-[3-(5-diethylaminomethyl-[1,2,3]triazol-1-yl)-phenyl]-7-(methyl-propyl-amino)-1,3-dihydro-benzo[b][1,4]diazepin-2-one]	151 °C
CCCN(C)c1cc2c(cc1Cl)NC(=O)CC(c1cccc(-n3nncc3CN(C)C(C)C)c1)=N2 [Example 124, 8-Chloro-4-(3-{5-[(isopropyl-methyl-amino)-methyl]-[1,2,3]triazol-1-yl}-phenyl)-7-(methyl-propyl-amino)-1,3-dihydro-benzo[b][1,4]diazepin-2-one]	148 °C
CC(C)N(C)c1cc2c(cc1Cl)NC(=O)CC(c1cccc(-n3nncc3CN3CCCC3)c1)=N2 [Example 125, 8-Chloro-7-(isopropyl-methyl-amino)-4-[3-(5-pyrrolidin-1-ylmethyl-[1,2,3]triazol-1-yl)-phenyl]-1,3-dihydro-benzo[b][1,4]diazepin-2-one]	172 °C
CC(C)CN(C)c1cc2c(cc1Cl)NC(=O)CC(c1cccc(-n3nncc3CN3CCCC3)c1)=N2 [Example 126, 8-Chloro-7-(isobutyl-methyl-amino)-4-[3-(5-pyrrolidin-1-ylmethyl-[1,2,3]triazol-1-yl)-phenyl]-1,3-dihydro-benzo[b][1,4]diazepin-2-one]	190 °C
CC(C)CN(C)c1cc2c(cc1Cl)NC(=O)CC(c1cccc(-n3nncc3CN(C)C)c1)=N2 [Example 128, 8-Chloro-4-[3-(5-dimethylaminomethyl-[1,2,3]triazol-1-yl)-phenyl]-7-(isobutyl-methyl-amino)-1,3-dihydro-benzo[b][1,4]diazepin-2-one]	199 °C
CC(C)N(C)c1cc2c(cc1Cl)NC(=O)CC(c1cccc(-n3nncc3CN3CCC3)c1)=N2 [Example 129, 4-[3-(5-Azetidin-1-ylmethyl-[1,2,3]triazol-1-yl)-phenyl]-8-chloro-7-(isopropyl-methyl-amino)-1,3dihydro-benzo[b][1,4]diazepin-2-one]	177 °C
CC(C)CN(C)c1cc2c(cc1Cl)NC(=O)CC(c1cccc(-n3nncc3CN3CCC3)c1)=N2 [Example 130, 4-[3-(5-Azetidin-1-ylmethyl-[1,2,3]triazol-1-yl)-phenyl]-8-chloro-7-(isobutyl-methyl-amino)-1,3-dihydro-benzo[b][1,4]diazepin-2-one]	191 °C
Cc1cc2c(cc1N(C)CC(C)C)N=C(c1cccc(-n3nncc3CO)c1)CC(=O)N2 [Example 132, 4-[3-(5-Hydroxymethyl-[1,2,3]triazol-1-yl)-phenyl]-7-(isobutyl-methyl-amino)-8-methyl-1,3-dihydro-benzo[b][1,4]diazepin-2-one]	198 °C
Cc1cc(-c2cccc(C3=Nc4cc(N(C)CC(C)C)c(C)cc4NC(=O)C3)c2)on1 [Example 134, 7-(Isobutyl-methyl-amino)-8-methyl-4-[3-(3-methyl-isoxazol-5-yl)-phenyl]-1,3-dihydro-benzo[b][1,4]diazepin-2-one]	187 °C
Cc1cc(-c2cccc(C3=Nc4cc(N5CCCC5)c(C)cc4NC(=O)C3)c2)on1 [Example 135, 8-Methyl-4-[3-(3-methyl-isoxazol-5-yl)-phenyl]-7-pyrrolidin-1-yl-1,3-dihydro-benzo[b][1,4]diazepin-2-one]	211 °C
CC(C)CN(C)c1cc2c(cc1C(F)(F)F)NC(=O)CC(c1cccc(-n3nncc3CN(C)C)c1)=N2 [Example 136, 4-[3-(5-Dimethylaminomethyl-[1,2,3]triazol-1-yl)-phenyl]-7-(isobutyl-methyl-amino)-8-trifluoromethyl-1,3-dihydro-benzo[b][1,4]diazepin-2-one]	182 °C
CC(C)CN(C)c1cc2c(cc1C#N)NC(=O)CC(c1cccc(-n3nncc3CN3CCCC3)c1)=N2 [Example 137, 8-(Isobutyl-methyl-amino)-4-oxo-2-[3-(5-pyrrolidin-1-ylmethyl-[1,2,3]triazol-1-yl)-phenyl]-4,5-dihydro-3H-benzo[b][1,4]diazepine-7-carbonitrile]	174 °C
Cc1cc2c(cc1N(C)CC(C)C)N=C(c1cccc(-n3nncc3CN3CCCC3)c1)CC(=O)N2 [Example 139, 7-(Isobutyl-methyl-amino)-8-methyl-4-[3-(5-pyrrolidin-1-ylmethyl-[1,2,3]triazol-1-yl)-phenyl]-1,3-dihydro-benzo[b][1,4]diazepin-2-one]	177 °C
CC(C)CN(C)c1cc2c(cc1C(F)(F)F)NC(=O)CC(c1cccc(-n3nncc3CN(C)C(C)C)c1)=N2 [Example 141, 7-(Isobutyl-methyl-amino)-4-(3-{5-[(isopropyl-methyl-amino)-methyl]-[1,2,3]triazol-1yl}-phenyl)-8-trifluoromethyl-1,3-dihydro-benzo[b][1,4]diazepin-2-one]	157 °C
CC(C)N(C)c1cc2c(cc1Cl)NC(=O)CC(c1cccc(-n3nncc3CNC3CCCC3)c1)=N2 [Example 142, 8-Chloro-4-[3-(5-cyclopentylaminomethyl-[1,2,3]triazol-1-yl)-phenyl]-7-(isopropyl-methyl-amino)-1,3-dihydro-benzo[b][1,4]diazepin-2-one]	174 °C
Cc1cc2c(cc1N(C)CC(C)C)N=C(c1cccc(-n3nncc3CNCC3CC3)c1)CC(=O)N2 [Example 143, 4-(3-{5-[(Cyclopropylmethyl-amino)-methyl]-[1,2,3]triazol-1-yl}-phenyl)-7-(isobutyl-methyl-amino)-8-methyl-1,3-dihydro-benzo[b][1,4]diazepin-2-one]	184 °C
CC(C)CN(C)c1cc2c(cc1Cl)NC(=O)CC(c1cccc(-n3nncc3CN3CCCCC3)c1)=N2 [Example 144, 8-Chloro-7-(isobutyl-methyl-amino)-4-[3-(5-piperidin-1-ylmethyl-[1,2,3]triazol-1-yl)-phenyl]-1,3-dihydro-benzo[b][1,4]diazepin-2-one]	169 °C
CC(C)NCc1cnnn1-c1cccc(C2=Nc3cc(N(C)C(C)C)c(Cl)cc3NC(=O)C2)c1 [Example 145, 8-Chloro-4-{3-[5-(isopropylamino-methyl)-[1,2,3]triazol-1-yl]-phenyl}-7-(isopropyl-methyl-amino)-1,3-dihydro-benzo[b][1,4]diazepin-2-one]	208 °C
COCCN(C)Cc1cnnn1-c1cccc(C2=Nc3cc(N(C)C(C)C)c(Cl)cc3NC(=O)C2)c1 [Example 146, 8-Chloro-7-(isopropyl-methyl-amino)-4-[3-(5-{[(2-methoxy-ethyl)-methyl-amino]-methyl}-[1,2,3]triazol-1-yl)-phenyl]-1,3-dihydro-benzo[b][1,4]diazepin-2-one]	119 °C
CC(C)N(C)Cc1cnnn1-c1cccc(C2=Nc3cc(N(C)C(C)C)c(Cl)cc3NC(=O)C2)c1 [Example 148, 8-Chloro-7-(isopropyl-methyl-amino)-4-(3-{5-[(isopropyl-methyl-amino)-methyl]-[1,2,3]triazol-1-yl}-phenyl)-1,3-dihydro-benzo[b][1,4]diazepin-2-one]	180 °C
CC(C)CN(C)Cc1cnnn1-c1cccc(C2=Nc3cc(N(C)C(C)C)c(Cl)cc3NC(=O)C2)c1 [Example 149, 8-Chloro-4-(3-{5-[(isobutyl-methyl-amino)-methyl]-[1,2,3]triazol-1-yl}-phenyl)-7-(isopropyl-methyl-amino)-1,3-dihydro-benzo[b][1,4]diazepin-2-one]	182 °C
CC(C)N(C)c1cc2c(cc1C(F)(F)F)NC(=O)CC(c1cccc(-n3nncc3CN(C)C)c1)=N2 [Example 150, 4-[3-(5-Dimethylaminomethyl-[1,2,3]triazol-1-yl)-phenyl]-7-(isopropyl-methyl-amino)-8-trifluoromethyl-1,3-dihydro-benzo[b][1,4]diazepin-2-one]	197 °C
CC(C)N(C)c1cc2c(cc1C(F)(F)F)NC(=O)CC(c1cccc(-n3nncc3CN3CCCC3)c1)=N2 [Example 151, 7-(Isopropyl-methyl-amino)-4-[3-(5-pyrrolidin-1-ylmethyl-[1,2,3]triazol-1-yl)-phenyl]-8-trifluoromethyl-1,3-dihydro-benzo[b][1,4]diazepin-2-one]	175 °C
CC(C)N(C)c1cc2c(cc1C(F)(F)F)NC(=O)CC(c1cccc(-n3nncc3CNCC3CC3)c1)=N2 [Example 153, 4-(3-{5-[(Cyclopropylmethyl-amino)-methyl]-[1,2,3]triazol-1-yl}-phenyl)-7-(isopropyl-methyl-amino)-8-trifluoromethyl-1,3-dihydro-benzo[b][1,4]diazepin-2-one]	152 °C
CC(C)N(C)c1cc2c(cc1Cl)NC(=O)CC(c1cccc(-n3nncc3CNC3CC3)c1)=N2 [Example 154, 8-Chloro-4-[3-(5-cyclopropylaminomethyl-[1,2,3]triazol-1-yl)-phenyl]-7-(isopropyl-methyl-amino)-1,3-dihydro-benzo[b][1,4]diazepin-2-one]	144 °C
CC(C)NCc1cnnn1-c1cccc(C2=Nc3cc(N(C)C(C)C)c(C(F)(F)F)cc3NC(=O)C2)c1 [Example 155, 4-{3-[5-(Isopropylamino-methyl)-[1,2,3]triazol-1-yl]-phenyl}-7-(isopropyl-methyl-amino)-8-trifluoromethyl-1,3-dihydro-benzo[b][1,4]diazepin-2-one]	191 °C
CC(C)CNCc1cnnn1-c1cccc(C2=Nc3cc(N(C)C(C)C)c(Cl)cc3NC(=O)C2)c1 [Example 156, 8-Chloro-4-{3-[5-(isobutylamino-methyl)-[1,2,3]triazol-1-yl]-phenyl}-7-(isopropyl-methyl-amino)-1,3-dihydro-benzo[b][1,4]-diazepin-2-one]	182 °C
